The text below walks through data of BindingDB's records for patent US11912703 (Bristol Myers Squibb, 2024).

Assay in all cases: TLR7/8/9 Inhibition Reporter Assays
On the technique in general: A reporter such as luciferase makes a cellular process visible.

The target of one test is T1, Toll-like receptor 9 (Homo sapiens, UniProt Q9NR96).
T1 sequence (Q9NR96 whole entry): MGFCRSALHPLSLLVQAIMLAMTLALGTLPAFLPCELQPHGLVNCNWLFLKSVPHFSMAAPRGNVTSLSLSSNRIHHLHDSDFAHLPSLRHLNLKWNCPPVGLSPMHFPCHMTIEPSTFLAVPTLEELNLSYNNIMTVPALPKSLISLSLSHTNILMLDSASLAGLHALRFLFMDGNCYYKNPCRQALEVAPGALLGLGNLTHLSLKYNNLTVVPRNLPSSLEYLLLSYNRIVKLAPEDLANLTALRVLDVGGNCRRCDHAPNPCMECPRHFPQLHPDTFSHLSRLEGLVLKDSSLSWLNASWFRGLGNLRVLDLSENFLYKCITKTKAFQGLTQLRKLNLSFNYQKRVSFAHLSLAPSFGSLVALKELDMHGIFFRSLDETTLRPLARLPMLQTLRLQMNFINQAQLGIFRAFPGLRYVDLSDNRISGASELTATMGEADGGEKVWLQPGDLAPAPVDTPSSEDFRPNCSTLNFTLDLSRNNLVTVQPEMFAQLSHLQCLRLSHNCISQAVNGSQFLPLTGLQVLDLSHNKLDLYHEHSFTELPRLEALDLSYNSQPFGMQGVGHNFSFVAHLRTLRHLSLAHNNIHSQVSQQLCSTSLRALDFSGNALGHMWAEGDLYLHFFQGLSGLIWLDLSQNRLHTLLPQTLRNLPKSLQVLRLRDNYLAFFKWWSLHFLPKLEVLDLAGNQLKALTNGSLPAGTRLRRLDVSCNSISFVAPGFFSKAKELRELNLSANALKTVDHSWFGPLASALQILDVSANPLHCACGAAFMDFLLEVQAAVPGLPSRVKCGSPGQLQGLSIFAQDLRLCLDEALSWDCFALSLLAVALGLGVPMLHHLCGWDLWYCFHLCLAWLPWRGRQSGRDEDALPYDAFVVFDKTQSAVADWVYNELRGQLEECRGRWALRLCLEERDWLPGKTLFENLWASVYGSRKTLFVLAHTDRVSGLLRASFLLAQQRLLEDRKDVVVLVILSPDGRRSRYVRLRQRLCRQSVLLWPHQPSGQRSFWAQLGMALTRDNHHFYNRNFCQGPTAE

In another test the target is T2, Toll-like receptor 8 (Homo sapiens, UniProt Q9NR97).
T2 sequence (Q9NR97 whole entry): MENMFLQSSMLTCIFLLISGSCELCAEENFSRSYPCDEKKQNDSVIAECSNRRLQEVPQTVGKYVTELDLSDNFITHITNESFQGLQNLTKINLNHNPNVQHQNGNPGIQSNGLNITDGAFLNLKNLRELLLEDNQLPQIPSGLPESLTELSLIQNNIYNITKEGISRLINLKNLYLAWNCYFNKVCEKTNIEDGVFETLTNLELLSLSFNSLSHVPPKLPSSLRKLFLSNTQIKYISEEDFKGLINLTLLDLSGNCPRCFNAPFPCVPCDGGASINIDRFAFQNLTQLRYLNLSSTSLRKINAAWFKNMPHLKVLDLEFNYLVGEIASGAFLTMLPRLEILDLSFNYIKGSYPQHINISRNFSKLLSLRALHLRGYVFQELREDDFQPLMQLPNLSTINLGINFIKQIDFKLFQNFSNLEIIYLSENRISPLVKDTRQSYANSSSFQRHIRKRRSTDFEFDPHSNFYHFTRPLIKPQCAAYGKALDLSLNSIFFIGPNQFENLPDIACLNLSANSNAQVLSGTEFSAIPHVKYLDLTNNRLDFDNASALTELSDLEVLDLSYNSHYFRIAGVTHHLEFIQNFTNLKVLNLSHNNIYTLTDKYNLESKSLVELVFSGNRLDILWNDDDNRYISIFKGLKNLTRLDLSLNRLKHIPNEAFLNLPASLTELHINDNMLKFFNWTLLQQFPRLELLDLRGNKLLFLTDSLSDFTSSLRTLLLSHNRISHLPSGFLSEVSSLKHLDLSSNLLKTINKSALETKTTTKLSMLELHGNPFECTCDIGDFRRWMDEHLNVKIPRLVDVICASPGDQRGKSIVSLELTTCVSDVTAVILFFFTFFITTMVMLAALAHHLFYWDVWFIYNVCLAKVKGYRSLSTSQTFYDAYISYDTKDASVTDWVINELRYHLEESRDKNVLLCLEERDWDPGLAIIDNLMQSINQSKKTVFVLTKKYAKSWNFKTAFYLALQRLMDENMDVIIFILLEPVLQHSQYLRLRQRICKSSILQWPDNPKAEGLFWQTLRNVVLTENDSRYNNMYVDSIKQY

Another test deals with T3, Toll-like receptor 7 (Homo sapiens, UniProt Q9NYK1).
T3 sequence (Q9NYK1 whole entry): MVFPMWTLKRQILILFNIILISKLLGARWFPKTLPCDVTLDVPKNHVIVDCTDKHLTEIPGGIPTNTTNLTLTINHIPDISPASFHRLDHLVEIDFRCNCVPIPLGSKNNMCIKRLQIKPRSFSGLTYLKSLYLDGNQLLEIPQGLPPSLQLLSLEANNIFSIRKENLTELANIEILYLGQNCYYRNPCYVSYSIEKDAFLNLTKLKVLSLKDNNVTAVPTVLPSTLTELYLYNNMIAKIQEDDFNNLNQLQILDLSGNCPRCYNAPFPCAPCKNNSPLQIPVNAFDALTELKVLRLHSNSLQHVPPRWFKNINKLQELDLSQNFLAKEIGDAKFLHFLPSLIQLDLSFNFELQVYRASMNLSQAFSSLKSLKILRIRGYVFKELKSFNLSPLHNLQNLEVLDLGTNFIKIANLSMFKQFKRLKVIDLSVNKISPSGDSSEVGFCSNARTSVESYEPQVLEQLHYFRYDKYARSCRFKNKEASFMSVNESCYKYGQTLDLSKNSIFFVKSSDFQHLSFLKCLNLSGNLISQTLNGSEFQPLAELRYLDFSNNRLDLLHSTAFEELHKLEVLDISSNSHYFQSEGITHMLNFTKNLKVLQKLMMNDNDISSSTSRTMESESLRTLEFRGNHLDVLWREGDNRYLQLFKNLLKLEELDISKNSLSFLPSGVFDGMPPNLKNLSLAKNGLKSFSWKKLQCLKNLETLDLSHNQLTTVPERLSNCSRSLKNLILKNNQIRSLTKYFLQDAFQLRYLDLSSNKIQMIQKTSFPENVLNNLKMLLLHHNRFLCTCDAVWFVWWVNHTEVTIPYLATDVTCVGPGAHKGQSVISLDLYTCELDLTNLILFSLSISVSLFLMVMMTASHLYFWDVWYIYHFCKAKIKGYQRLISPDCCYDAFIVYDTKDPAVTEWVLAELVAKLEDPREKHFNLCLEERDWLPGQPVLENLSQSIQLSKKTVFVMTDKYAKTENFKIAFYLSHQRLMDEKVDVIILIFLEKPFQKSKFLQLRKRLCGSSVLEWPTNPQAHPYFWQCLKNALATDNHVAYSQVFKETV

Description for Toll-like receptor 7: (§1) HEK-Blue-cells (Invivogen) overexpressing human TLR7, TLR8 or TLR9 receptors were used for screening inhibitors of these receptors using an inducible SEAP (secreted embryonic alkaline phosphatase) reporter gene under the control of the IFN-β minimal promoter fused to five NF-κB and AP-1-binding sites. Briefly, cells are seeded into Greiner 384 well plates (15000 cells per well for TLR7, 20,000 for TLR8 and 25,000 for TLR9) and then treated with test compounds in DMSO to yield a final dose response concentration range of 0.05 nM-50 μM. […] After a 22 hour incubation at 37 C., 500 CO2, SEAP levels are determined with the addition of HEK-Blue Detection reagent (Invivogen), a cell culture medium that allows for detection of SEAP, according to manufacturer's specifications. The percent inhibition is determined as the 00 reduction in the HEK-Blue signal present in wells treated with agonist plus DMSO alone compared to wells treated with a known inhibitor.
Description for Toll-like receptor 8: as §1
Description for Toll-like receptor 9: as §1

The IC50 is the concentration at which inhibition is half-maximal. Low values mean greater potency, high ones weaker potency. As to `Cc1c(-c2[nH]c3cnc(C4CCC(N5CC(CO)(CO)C5)CC4)c(F)c3c2C(C)C)cn2ncnc2c1C` (configuration not stated) [US11912703, Example 266], the results for the concentration for half-maximal inhibition (IC50) against Toll-like receptor 9, against Toll-like receptor 8 and against Toll-like receptor 7 were 2.03 µM, 0.023 µM and 0.026 µM, respectively.
Take `CNC(=O)CN1CCN(c2cc3c(C(C)C)c(-c4cc(OC)c5ncnn5c4)[nH]c3cn2)CC1` [US11912703, Example 288]: the half-maximal inhibitory concentration (IC50) on Toll-like receptor 9 amounted to 2.87 µM; on Toll-like receptor 8, 0.0085 µM; on Toll-like receptor 7, 0.027 µM.
With `CNCC(=O)N1CCN(c2cc3c(C(C)C)c(-c4cc(OC)c5ncnn5c4)[nH]c3cn2)CC1` [US11912703, Example 289], the IC50 turned out to be 14 µM on Toll-like receptor 9, 0.058 µM on Toll-like receptor 8 and 0.0037 µM against Toll-like receptor 7.
Taken in the same sequence, the figures for `COc1cc(-c2[nH]c3cnc(N4CCN(C5COC5)CC4)cc3c2C(C)C)cn2ncnc12` [US11912703, Example 303] were over 50 µM, 0.012 µM and 0.019 µM.
